Source: ChEMBL document CHEMBL3102848, “Carbamazepine derivatives with P2X4 receptor-blocking activity” (Bioorg Med Chem, 2014)

Legend:
[1] = target: T1, P2X purinoceptor 7 (Homo sapiens, UniProt Q99572); assay: Antagonist activity at human P2X7 receptor expressed in human 1321N1 cells assessed as inhibition of ATP-induced cytosolic calcium influx preincubated for 30 mins followed by ATP addition by Fluo-4 AM dye-based fluorescence assay; type: cell-based
T1 sequence (Q99572 whole entry): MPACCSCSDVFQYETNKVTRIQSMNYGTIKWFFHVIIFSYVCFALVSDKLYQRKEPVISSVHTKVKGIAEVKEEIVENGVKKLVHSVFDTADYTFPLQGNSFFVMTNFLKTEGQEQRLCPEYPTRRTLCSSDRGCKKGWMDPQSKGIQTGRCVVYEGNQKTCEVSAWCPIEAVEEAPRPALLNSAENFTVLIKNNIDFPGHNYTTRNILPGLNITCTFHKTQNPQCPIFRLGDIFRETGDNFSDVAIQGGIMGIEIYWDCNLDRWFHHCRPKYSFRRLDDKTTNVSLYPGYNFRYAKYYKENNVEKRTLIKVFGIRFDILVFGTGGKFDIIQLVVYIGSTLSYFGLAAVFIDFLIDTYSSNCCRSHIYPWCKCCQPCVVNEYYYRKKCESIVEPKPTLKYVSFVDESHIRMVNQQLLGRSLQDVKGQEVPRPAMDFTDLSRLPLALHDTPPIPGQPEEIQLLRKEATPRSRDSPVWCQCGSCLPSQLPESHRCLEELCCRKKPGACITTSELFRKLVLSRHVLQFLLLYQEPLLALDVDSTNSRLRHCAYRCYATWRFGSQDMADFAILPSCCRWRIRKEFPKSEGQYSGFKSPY

[2] = target: T2, P2X purinoceptor 3 (Homo sapiens, UniProt P56373); assay: Antagonist activity at human P2X3 receptor expressed in human 1321N1 cells assessed as inhibition of ATP-induced cytosolic calcium influx preincubated for 30 mins followed by ATP addition by Fluo-4 AM dye-based fluorescence assay; type: cell-based
T2 sequence (P56373 whole entry): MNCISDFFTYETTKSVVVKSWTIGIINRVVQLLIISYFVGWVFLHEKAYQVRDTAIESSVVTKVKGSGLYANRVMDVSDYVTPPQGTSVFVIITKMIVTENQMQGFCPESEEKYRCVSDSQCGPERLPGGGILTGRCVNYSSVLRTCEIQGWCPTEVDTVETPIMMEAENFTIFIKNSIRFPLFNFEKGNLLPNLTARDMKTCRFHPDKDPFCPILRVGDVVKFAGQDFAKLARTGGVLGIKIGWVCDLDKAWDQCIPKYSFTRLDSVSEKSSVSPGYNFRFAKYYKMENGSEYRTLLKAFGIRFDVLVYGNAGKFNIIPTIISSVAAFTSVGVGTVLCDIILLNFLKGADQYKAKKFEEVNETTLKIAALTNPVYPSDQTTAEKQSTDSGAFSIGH

[3] = target: T3, P2X purinoceptor 2 (Homo sapiens) (UniProt Q9UBL9); assay: Antagonist activity at human P2X2 receptor expressed in human 1321N1 cells assessed as inhibition of ATP-induced cytosolic calcium influx at 100 uM preincubated for 30 mins followed by ATP addition by Fluo-4 AM dye-based fluorescence assay; type: cell-based
T3 sequence (whole entry): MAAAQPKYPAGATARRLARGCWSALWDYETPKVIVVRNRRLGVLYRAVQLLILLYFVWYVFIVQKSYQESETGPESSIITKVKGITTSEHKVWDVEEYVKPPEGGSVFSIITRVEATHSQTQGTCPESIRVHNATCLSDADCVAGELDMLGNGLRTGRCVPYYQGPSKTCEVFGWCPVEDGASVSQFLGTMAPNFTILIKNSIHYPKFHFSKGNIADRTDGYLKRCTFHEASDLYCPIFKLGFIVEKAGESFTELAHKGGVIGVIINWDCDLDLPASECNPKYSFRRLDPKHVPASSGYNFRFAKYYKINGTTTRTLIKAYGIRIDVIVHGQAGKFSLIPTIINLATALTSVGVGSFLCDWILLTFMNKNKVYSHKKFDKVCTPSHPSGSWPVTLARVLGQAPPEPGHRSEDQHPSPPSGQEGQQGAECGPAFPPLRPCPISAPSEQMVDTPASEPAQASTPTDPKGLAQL

[4] = target: T4, P2X purinoceptor 2 (Homo sapiens, UniProt Q9UBL9); assay: Antagonist activity at human P2X2 receptor expressed in human 1321N1 cells assessed as inhibition of ATP-induced cytosolic calcium influx preincubated for 30 mins followed by ATP addition by Fluo-4 AM dye-based fluorescence assay; type: cell-based
T4 sequence (Q9UBL9 whole entry): T3 sequence (whole entry)

[5] = target: T5, P2X purinoceptor 1 (Homo sapiens, UniProt P51575); assay: Antagonist activity at human P2X1 receptor expressed in human 1321N1 cells assessed as inhibition of ATP-induced cytosolic calcium influx preincubated for 30 mins followed by ATP addition by Fluo-4 AM dye-based fluorescence assay; type: cell-based
T5 sequence (P51575 whole entry): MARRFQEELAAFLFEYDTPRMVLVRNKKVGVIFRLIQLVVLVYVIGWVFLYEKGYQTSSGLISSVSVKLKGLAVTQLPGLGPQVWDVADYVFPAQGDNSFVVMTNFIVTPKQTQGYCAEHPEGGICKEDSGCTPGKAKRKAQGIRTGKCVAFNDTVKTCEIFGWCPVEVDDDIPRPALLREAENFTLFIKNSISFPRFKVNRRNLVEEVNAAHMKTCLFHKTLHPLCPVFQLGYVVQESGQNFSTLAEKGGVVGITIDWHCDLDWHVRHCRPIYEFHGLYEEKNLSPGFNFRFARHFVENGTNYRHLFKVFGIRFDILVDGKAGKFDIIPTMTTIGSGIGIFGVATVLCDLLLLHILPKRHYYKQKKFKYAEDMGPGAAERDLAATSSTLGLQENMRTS

[6] = target: T6, P2X purinoceptor 4 (Rattus norvegicus, UniProt P51577); assay: Antagonist activity at rat P2X4 receptor assessed as inhibition of ATP-induced calcium influx preincubated for 30 mins followed by ATP addition by Fluo-4 AM dye-based fluorescence assay
T6 sequence (P51577 whole entry): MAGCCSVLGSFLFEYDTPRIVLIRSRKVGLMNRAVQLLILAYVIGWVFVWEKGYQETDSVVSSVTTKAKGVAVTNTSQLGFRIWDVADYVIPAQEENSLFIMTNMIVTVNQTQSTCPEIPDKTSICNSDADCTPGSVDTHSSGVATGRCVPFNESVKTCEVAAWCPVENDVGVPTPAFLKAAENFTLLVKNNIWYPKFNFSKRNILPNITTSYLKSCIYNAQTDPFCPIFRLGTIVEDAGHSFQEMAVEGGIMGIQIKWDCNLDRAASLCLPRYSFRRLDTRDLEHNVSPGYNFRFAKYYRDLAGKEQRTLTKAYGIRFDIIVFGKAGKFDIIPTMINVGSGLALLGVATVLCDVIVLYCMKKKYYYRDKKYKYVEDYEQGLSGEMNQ

| IC50 [1] [µM] | IC50 [2] [µM] | inhibition [3] [%] | IC50 [4] [µM] | IC50 [5] [µM] | IC50 [6] [µM] | Compound |
| --- | --- | --- | --- | --- | --- | --- |
| 95.2 | 7.18 | 8 | > 100 | 5.32 | 54.6 | CC(C)N(C(=O)N1c2ccccc2C=Cc2ccccc21)C(C)C |
| > 100 | 15.2 | -2 | > 100 | 4.55 | 35.9 | CCCN(CCC)C(=O)N1c2ccccc2C=Cc2ccccc21 |
| > 100 | 7.98 | 4 | > 100 | 20.7 | 95.8 | O=C(N1CCCCC1)N1c2ccccc2C=Cc2ccccc21 |
| 69.8 | 14.2 | 1 | > 100 | 25.2 | 43 | CCN(CC)C(=O)N1c2ccccc2C=Cc2ccccc21 |
| 40.8 | 28 | 11 | > 100 | 69.6 | 109 | O=C(NC1CCCCC1)N1c2ccccc2C=Cc2ccccc21 |
| > 100 | 29.8 | 6 | > 100 | 68.8 | 69.3 | O=C(N1CCCC1)N1c2ccccc2C=Cc2ccccc21 |
